Tests used:
[1] = system: YRG2-ΔF strain; experiment: Colony formation on SC-HIS-LEU-TRP media, YRG2-ΔF strain; type: cell-based, yeast; details: 1.5 mM in SC-HIS-LEU-TRP media; 30° C.; three days
Method: (§1) When the YRG2-ΔF strain was streaked onto solid media (SC-HIS, -LEU, -TRP) and incubated at 21° C., colonies formed within three days (Table 2). The YRG2-ΔF colonies were approximately the same size as colonies produced by YRG2-WT grown under the same conditions. However, when YRG2-ΔF was streaked onto SC-HIS-LEU-TRP solid media and incubated at 30° C., only small colonies were apparent after three days (substantially smaller in size than YRG2-WT colonies grown under the same growth conditions). Colonies were not apparent (or were detectable only as extremely small micro-colonies) when YRG2-ΔF was streaked onto solid SC-HIS, -LEU, -TRP media and incubated at 34° C. The ΔF508 mutation thus conferred a temperature-sensitive HIS+ phenotype to the yeast strain containing pADPN-ΔF and pBDPN-ΔF. To further enhance the temperature-sensitive HIS− colony phenotype of the YRG2-ΔF strain relative to the YRG2-WT strain, it is advantageous to incorporate 3-amino-1,2,4-triazole at a concentration of 1.5 mM into the SC-HIS-LEU-TRP media.
To use the YRG2-ΔF strain for screening purposes, a lawn of the YRG2-ΔF strain is spread onto selective media. This media contains yeast nitrogen base and all amino acids except for histidine, leucine, and tryptophan. The media also contains 3-amino 1,2,4-triazole at a concentration of 1.5 mM. […]

[2] = system: YRG2-WT strain; experiment: Colony formation on SC-HIS-LEU-TRP media, YRG2-WT strain; type: cell-based, yeast; details: 1.5 mM in SC-HIS-LEU-TRP media; 30° C.; three days
Method: as §1

[3] = target: T1, NBD1 ΔF508 domain of CFTR (dimerization) (Homo sapiens, UniProt P13569, DEL508-508/V470M); experiment: Yeast two-hybrid growth assay with YRG2-ΔF strain on selective media lacking histidine; type: cell-based; details: 1.5M glycerol in growth media; 37° C.; media lacking leucine, tryptophan and histidine
T1 construct: expressed in transfected cells; host or cells: Saccharomyces cerevisiae strain YRG2 (Stratagene), transformed with pBDPN-ΔF and pADPN-ΔF = YRG2-ΔF
Method: FIGS. 2A-2C show growth of two-hybrid yeast strains containing wildtype and mutant CFTR NBD1. The yeast strain YRG2 was transformed with pADGAL4 and pBDGAL4 constructs containing wildtype and mutant CFTR NBD1 as indicated. Each strain was grown in synthetic complete media lacking leucine and tryptophan, and equal aliquots of cells in 10-fold dilutions were spotted to synthetic complete media lacking leucine, tryptophan and histidine. Dilutions for each strain proceed from right to left, with the spots from most dilute cultures corresponding to the tapered end of the triangle. Plates were incubated at either 21° C. (FIG. 2A) or 37° C. (FIG. 2B) (for 3 days and 5 days respectively). Glycerol was added to the media to a final concentration of 1.5 M as indicated (1.5 M Glyc) (FIG. 2C).
The present invention concerns methods for screening chemical compounds for drug candidates with activity to correct the dimerization defect associated with mutant CFTR NBD1 containing the ΔF508 mutation. […] If the sample tested is a pure compound, the compound can then be analyzed further in secondary assays to determine its activity to restore CFTRΔF508 cAMP-stimulated chloride channel activity in mammalian cells expressing CFTRΔF508 (Sheppard et al., 1994). […]

T1 sequence (P13569 with tags, fused parts or gaps V470M/DEL508-508): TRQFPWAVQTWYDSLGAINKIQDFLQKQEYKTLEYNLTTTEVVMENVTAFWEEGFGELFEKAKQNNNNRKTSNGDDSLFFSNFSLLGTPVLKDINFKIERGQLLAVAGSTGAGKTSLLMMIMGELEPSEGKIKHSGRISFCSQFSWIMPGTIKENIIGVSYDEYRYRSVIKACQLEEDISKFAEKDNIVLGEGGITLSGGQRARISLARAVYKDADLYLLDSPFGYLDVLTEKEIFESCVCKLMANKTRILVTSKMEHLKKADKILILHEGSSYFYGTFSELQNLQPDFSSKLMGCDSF
T1 sequence (P13569 with tags, fused parts or gaps V470M/DEL508-508): as above

SMILES	colony formation of YRG2-ΔF strain [1]	colony formation of YRG2-WT strain [2]	rescue of temperature-sensitive dimerization of mutant NBD1 containing ΔF508 [3]
Nc1nc[nH]n1 [3-amino-1,2,4-triazole]	prevents colony formation	does not inhibit colony formation	–
OCC(O)CO [glycerol]	–	–	rescued

Source: patent US8288107B2, “Materials and methods for detecting interaction of CFTR polypeptides” (Florida State University Research Foundation, priority 1999, dated 2012)
